Experiment [1] addresses T1, recombinant TsTIM (WT TsTIM) (Taenia solium, UniProt Q9GTX8).
T1 construct: N-terminal six-His tag from pRSET, expressed in E. coli BL21 Codon Plus (DE3)-RIL, IMAC-purified, tag removal not mentioned; TIM is a dimer
In words: enzyme inactivation assay, GAP to DHAP, alpha-GDH coupled NADH oxidation at […] nm. Format: biochemical.

The target of experiment [2] is T1, recombinant TsTIM (WT TsTIM). As to the kind of experiment: alpha-GDH coupled NADH oxidation at […] nm. The following applies: GAP to DHAP direction. Format: biochemical.

Structures are written as SMILES.

T1 sequence (Q9GTX8 whole entry): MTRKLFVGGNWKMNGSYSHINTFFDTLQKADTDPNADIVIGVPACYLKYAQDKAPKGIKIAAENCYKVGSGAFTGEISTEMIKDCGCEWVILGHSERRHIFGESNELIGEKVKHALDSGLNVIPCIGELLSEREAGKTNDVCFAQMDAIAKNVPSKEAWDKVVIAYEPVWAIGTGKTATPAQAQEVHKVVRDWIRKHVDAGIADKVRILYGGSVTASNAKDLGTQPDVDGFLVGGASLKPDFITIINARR

As to `CCOC(=O)c1ccc2c(c1)[n+]([O-])c(C(=O)c1cccs1)c(C(F)(F)F)[n+]2[O-]` [TS-12], the inhibition at 1000 µM in experiment [1] is less than 40%. For `O=C[C@H](O)COP(=O)(O)O` [glyceraldehyde 3-phosphate], the “alpha-GDH coupled NADH oxidation at 340 nm” value in experiment [2] is recorded as “measuring the conversion of glyceraldehyde 3-phosphate (GAP) to dihydroxyacetone phosphate (DHAP)”.

In general, inhibition refers to the relative decrease from the control value, in per cent.

The values above are taken from publication PMC11944476, “In Vitro Evaluation of Esters of Quinoxaline-1,4-di-N-oxide Derivatives as New Antitaeniasis Agents and Their Inhibitory Activity Against Triosephosphate Isomerase” (Pharmaceuticals, 2025).
